Measurements reported in patent US12109218B2, “Compositions of grapiprant and methods for using the same” (ARATANA THERAPEUTICS, INC., priority 2014, dated 2024).
Where two headings read alike, the source gives them in different places.

How the values were obtained:
[1] = test system: dogs with naturally occurring osteoarthritis; assay: Dose ranging field study in osteoarthritic dogs, CBPI (Example 6); assay type: in vivo, dog; conditions: for median decrease from baseline PSS score: placebo 28; for median decrease from baseline PIS score: placebo 39.13; for Pain Interference Score (PIS), % change from Day 0 / Pain Severity Score (PSS), % change from Day 0: Formulation A34 tablets
Protocol: In a masked, multi-centered dose ranging field study, dogs with naturally occurring osteoarthritis were treated with grapiprant at 2 mg/kg once daily (SID), 5 mg/kg once daily, 4 mg/kg twice daily (BID), or placebo twice daily to assess the control of pain and inflammation. Dogs were randomly assigned to one of the four treatment groups and treated orally with Formulation A34 tablets of 20, 60, and 100 mg, or placebo tablets (matched to the 4 mg/kg group). (See above at Example 2, Table 4). The control of pain and inflammation was assessed by the owner using the validated Canine Brief Pain Inventory (CBPI) assessment tool, which consists of a pain severity score (PSS), a Pain Interference Score (PIS), and an Owner Impression of dog's quality of life. CBPI scoring, as well as a veterinarian assessment of osteoarthritis, were conducted at Study Day 0 (baseline) and Days 7, 14, 21, and 28.
In total 476 dogs were screened in the study with 108 screen failures, resulting in […] in the per protocol population.

Feline Onychectomy = assay: Feline onychectomy pain study FCL-12-002 (Example 9); assay type: in vivo, cat
Protocol: This controlled, non-GLP, laboratory study used three treatment groups: Group 1 was dosed with 20-mg grapiprant-containing Formulation […] tablets the night before (about 12 hours) and 30 minutes before surgery; Group 2 was the negative control dosed with empty gelatin capsules; and Group 3 was dosed with two 20-mg grapiprant-containing Formulation […] tablets given 30 minutes before surgery. Ten adult cats were in each group. The cats were acclimated for 7 days. Cats were divided into two sequences of 15 cats each to allow for surgeries over two days. The day of surgery was considered Day 0 for that sequence. One cat from each grapiprant-treated group was removed before surgical procedures were performed. On Day -1/0 for that sequence, all animals were administered with the appropriate test article before onychectomy. All animals received a dose of butorphanol before surgery. Following Day 2 procedures, all animals were transferred to an open feline colony. Study parameters of interest included statistical analysis of recovery, sedation, analgesia scores, and clinical pathology.

[2] = Pharmacokinetics in cats FPK-13-004 (Example 13); assay type: in vivo, cat; conditions: for AUC(0-t) / Cmax / Tmax / half-life / Cmax/Dose: cats
Protocol: This controlled, non-GLP, laboratory study used three treatment groups: Group 1 was dosed with grapiprant at 2.5 mg/animal; Group 2 was dosed with grapiprant at 5 mg/animal; and Group 3 was dosed with grapiprant at 10 mg/animal. Each dose was administered once on Day 0. Blood samples were collected and processed to serum for pharmacokinetic (PK) analysis. Four hours post-dose, all cats were offered food. Following PK sample collections on Day 1, all animals were released to an open feline colony.
Pharmacokinetic parameters were similar between males and females within each dose group, and therefore mean values were determined by combining data from all animals.

[3] = 28-day safety and toxicokinetic study in cats (Example 14); assay type: in vivo, cat; conditions: for half-life: both sexes, domestic shorthair, cat, serum, oral, 15 mg/kg
Protocol: The objective of this study was to evaluate the feline safety and toxicokinetic profiles of grapiprant. Twenty-four domestic shorthair cats were randomly assigned to receive placebo or 3, 9, or 15 mg/kg grapiprant in a capsule formulation (3 males and 3 females per group) once daily for 28 days. All cats received their assigned medications as per protocol. Food consumption and behavior were observed daily, bodyweight measured weekly, and clinical pathology analyses on blood run on Days −7, 14, and 25, and urinalysis run on Days −7, and 25. Serial blood samples for toxicokinetic analyses were obtained following the Day 0 and Day 27 doses. Full necropsies and histopathological evaluations were performed following humane euthanasia on Day 28.

[4] = test system: complete Freund's adjuvant-induced chronic inflammatory pain response; conditions: cited from earlier work
[5] = 9-month oral toxicity study in dogs with 4-week recovery (Example 7)
Protocol: Four animals per sex were used in each dose group and two additional animals per sex in the 50 mg/kg dose group for recovery purposes. Clinical signs and food consumption were assessed daily. Bodyweight was recorded weekly. Ophthalmologic examination was performed on Weeks 20 and 38 of the dosing phase and Week 4 of the recovery phase. Electrocardiograms were recorded on Weeks 13, 26, and 38 of the dosing phase and Week 4 of the recovery phase. Hematology, coagulation, and serum chemistry parameters were monitored on Weeks 13, 26, and 39 of the dosing phase and Week 4 or 5 of the recovery phase. Urinalyses were performed on Week 37 of the dosing phase and Week 3 or 4 of the recovery phase. […] At the end of the dosing or recovery period, dogs were euthanized and necropsied. After gross examination, selected organs were weighed, and a comprehensive set of tissues was collected and processed for microscopic examination.

[6] = cats, 20-mg Formulation A34 tablets before onychectomy, vs placebo control
[7] = single dose 5 mg (1 mg/kg), mean of all animals
[8] = for a 4-fold increase in dose from 0.5 to 2 mg/kg

## CCc1nc2c(C)nc(C)cc2n1-c1ccc(CCNC(=O)NS(=O)(=O)c2ccc(C)cc2)cc1 [grapiprant, N-{2-[4-(2-ethyl-4,6-dimethyl-1H-imidazo[4,5-c]pyridin-1-yl)phenyl]ethyl}-N′-[(4-methylphenyl)sulfonyl]urea]
[1]; 2 mg/kg SID and 5 mg/kg SID doses
  control of pain and inflammation of osteoarthritis (PSS and PIS of the CBPI): equally effective in controlling the pain and inflammation of osteoarthritis in dogs
[1]; 2 mg/kg SID
  median decrease from baseline PSS score: 48
  median decrease from baseline PIS score: 53.25
[1]; 4 mg/kg BID
  median decrease from baseline PSS score: 44.44
  median decrease from baseline PIS score: 52.27
[1]; 5 mg/kg SID
  median decrease from baseline PSS score: 48.53
  median decrease from baseline PIS score: 55.27
[1]; 2 mg/kg SID, Day 7, median
  Pain Interference Score (PIS), % change from Day 0: −27.97%
  Pain Severity Score (PSS), % change from Day 0: −24.26%
[1]; 2 mg/kg SID, Day 14, median
  Pain Interference Score (PIS), % change from Day 0: −33.33%
  Pain Severity Score (PSS), % change from Day 0: −32.00%
[1]; 2 mg/kg SID, Day 21, median
  Pain Interference Score (PIS), % change from Day 0: −47.83%
  Pain Severity Score (PSS), % change from Day 0: −35.00%
[1]; 2 mg/kg SID, Day 28, median
  Pain Interference Score (PIS), % change from Day 0: −53.25%
  Pain Severity Score (PSS), % change from Day 0: −48.00%
[1]; 4 mg/kg BID, Day 7, median
  Pain Interference Score (PIS), % change from Day 0: −28.57%
  Pain Severity Score (PSS), % change from Day 0: −17.39%
[1]; 4 mg/kg BID, Day 14, median
  Pain Interference Score (PIS), % change from Day 0: −35.24%
  Pain Severity Score (PSS), % change from Day 0: −28.29%
[1]; 4 mg/kg BID, Day 21, median
  Pain Interference Score (PIS), % change from Day 0: −42.11%
  Pain Severity Score (PSS), % change from Day 0: −38.89%
[1]; 4 mg/kg BID, Day 28, median
  Pain Interference Score (PIS), % change from Day 0: −52.27%
  Pain Severity Score (PSS), % change from Day 0: −44.44%
[1]; 5 mg/kg SID, Day 7, median
  Pain Interference Score (PIS), % change from Day 0: −26.92%
  Pain Severity Score (PSS), % change from Day 0: −22.22%
[1]; 5 mg/kg SID, Day 14, median
  Pain Interference Score (PIS), % change from Day 0: −40.00%
  Pain Severity Score (PSS), % change from Day 0: −30.00%
[1]; 5 mg/kg SID, Day 21, median
  Pain Interference Score (PIS), % change from Day 0: −53.85%
  Pain Severity Score (PSS), % change from Day 0: −44.44%
[1]; 5 mg/kg SID, Day 28, median
  Pain Interference Score (PIS), % change from Day 0: −55.27%
  Pain Severity Score (PSS), % change from Day 0: −48.53%
[1]; extrapolated from human PK/PD, protein binding and receptor affinity, confirmed in the field study
  preliminary estimated mean effective canine dose: 2 mg/kg SID
Feline Onychectomy; Group 1 (about 12 hours and 30 minutes before surgery) vs Group 3 (two tablets 30 minutes before surgery)
  comparison of dosing regimens: dosing the cats with grapiprant the night before surgery was more effective
Feline Onychectomy; both groups of grapiprant treated animals
  pain interventions: fewer pain interventions than placebo control
Feline Onychectomy; [6]
  analgesia scores: decreased analgesia scores (reduced pain)
  sedation scores: without an apparent effect on sedation scores
[2]; both sexes, serum, 2.5 mg/animal, single dose 2.5 mg (0.5 mg/kg), mean of all animals
  AUC(0-t): 4190 ng·h/mL
[2]; both sexes, serum, 2.5 mg/animal, single dose 2.5 mg (0.5 mg/kg), mean of all animals, read-out: Cmax
  Cmax: 1060 ng/mL
[2]; both sexes, serum, 5 mg/animal, single dose 5 mg (1 mg/kg), mean of all animals, read-out: Tmax
  Tmax: 1.13 h
[2]; both sexes, serum, 10 mg/animal, single dose 10 mg (2 mg/kg), mean of all animals
  AUC(0-t): 21200 ng·h/mL
[2]; both sexes, serum, 10 mg/animal, single dose 10 mg (2 mg/kg), mean of all animals, read-out: Cmax
  Cmax: 4430 ng/mL
[2]; both sexes, serum, 0.5 to 2 mg/kg, read-out: Mean Tmax values among groups
  Tmax: 1.13 to 1.5 h
[2]; both sexes, serum, single dose 2.5 mg (0.5 mg/kg), mean of all animals
  half-life: 1.58 h
[2]; both sexes, serum, single dose 5 mg (1 mg/kg), mean of all animals
  half-life: 1.13 h
[2]; both sexes, serum, single dose 10 mg (2 mg/kg), mean of all animals
  half-life: 3.44 h
[2]; single dose 2.5 mg (0.5 mg/kg), mean of all animals
  Cmax/Dose: 2120 kg·ng/mL/mg
[2]; [7]
  Cmax: 2690 ng/mL
  Cmax/Dose: 2500 kg·ng/mL/mg
[2]; single dose 10 mg (2 mg/kg), mean of all animals
  Cmax/Dose: 2150 kg·ng/mL/mg
[2]; [8]
  increase in AUClast: 5.06 fold
  increase in Cmax: 4.18 fold
[3]; capsule 3, 9, or 15 mg/kg once daily, Day 27, read-out: Mean half-lives
  half-life: 3 to 14 h
[3]; capsule 3, 9, or 15 mg/kg once daily, Day 27, read-out: half-life, median value
  half-life: 5 to 6 h
[3]; capsule 3, 9, or 15 mg/kg once daily for 28 days
  tolerability and adverse effects: well tolerated, and no adverse effects were noted at daily doses up to 15 mg/kg for 28 days
[3]; capsule 3, 9, or 15 mg/kg once daily, Day 27
  time after administration at which maximum serum concentrations were reached: 1 to 4 h
[4]
  effect on chronic inflammatory pain response: reverses complete Freund's adjuvant-induced chronic inflammatory pain response
[5]; 6 mg/kg, Week 39
  decrease in mean albumin/globulin (A/G) ratio: −16%
[5]; 50 mg/kg
  histopathological finding: mild regeneration of the mucosal epithelium of the ileum in one male
[5]; 50 mg/kg, Weeks 26 and 39
  decrease in mean serum albumin vs. control value: up to −14%
[5]; 1, 6, and 50 mg/kg/day dosing regimen
  accumulation: no accumulation of grapiprant was observed
[5]; Beagle dogs, oral once daily, nine months
  level with no observed adverse effects: 6 mg/kg
[5]; dose-related trend, 1-50 mg/kg
  individual decrease in albumin vs. pre-study: up to −41%
  individual decrease in calcium: up to −18%
  individual decrease in total protein: up to −30%
